Source: the supplement of paper PMC10307832

Tests used:
Assay in all cases: relative viability (nuclei count vs DMSO), 5 days (fraction); higher = more cells survive
kb NB 142-70 + Dasatinib = compound: C1CSC2=C(C(=O)N1)SC3=C2C=C(C=C3)O [kb NB 142-70] + Cc1nc(Nc2ncc(C(=O)Nc3c(C)cccc3Cl)s2)cc(N2CCN(CCO)CC2)n1 [Dasatinib] (partner 0.075 µM)
Outline: (§1)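 Relative viability is defined as nuclei in treated wells over nuclei in vehicle wells. Duplicate plates were run and medians reported. Lung cancer cell lines in 1536-well plates were dosed by pin tool one day after seeding, with one drug or with a fixed anchor-drug dose plus five library-drug doses (not always all listed) in √10 steps, and nuclei were counted after 5 days.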

[1] = compound: NCC(=O)Nc1ccc(-n2nc(C(F)(F)F)cc2-c2ccc3c(ccc4ccccc43)c2)cc1 + CS(=O)(=O)N1CCN(Cc2cc3nc(-c4cccc5[nH]ncc45)nc(N4CCOCC4)c3s2)CC1 [Pictilisib] (partner 1 µM)
Outline: as §1

[2] = compound: C1CSC2=C(C(=O)N1)SC3=C2C=C(C=C3)O [kb NB 142-70] + CC(=O)Nc1cccc(-n2c(=O)n(C3CC3)c(=O)c3c(Nc4ccc(I)cc4F)n(C)c(=O)c(C)c32)c1 [Trametinib] (partner 0.02 µM)
Outline: as §1

[3] = compound: NCC(=O)Nc1ccc(-n2nc(C(F)(F)F)cc2-c2ccc3c(ccc4ccccc43)c2)cc1 + COc1cccc2cc(-c3nc([C@H]4CC[C@H](C(=O)O)CC4)n4ncnc(N)c34)[nH]c12 [OSI-027] (partner 0.5 µM)
Outline: as §1

UMC-11
relative viability (kb NB 142-70 + Dasatinib; first compound 0.1 µM): 0.438
relative viability (kb NB 142-70 + Dasatinib; first compound 1 µM): 0.464
relative viability (kb NB 142-70 + Dasatinib; first compound 3.162 µM): 0.318
relative viability ([1]; first compound 0.02 µM): 0.835
relative viability ([1]; first compound 0.06325 µM): 0.866
relative viability ([1]; first compound 0.2 µM): 0.858
relative viability ([1]; first compound 0.6325 µM): 0.732
relative viability ([1]; first compound 2 µM): 0.828
relative viability ([2]; first compound 0.1 µM): 0.668
relative viability ([2]; first compound 1 µM): 0.735
relative viability ([2]; first compound 3.162 µM): 0.464
relative viability ([3]; first compound 0.02 µM): 0.402
relative viability ([3]; first compound 0.06325 µM): 0.475
relative viability ([3]; first compound 0.2 µM): 0.485
relative viability ([3]; first compound 0.6325 µM): 0.443
relative viability ([3]; first compound 2 µM): 0.453
